Test results reported in US20050112064A1, “DNA-dependent MRI contrast agents” (priority 2003, published 2005).
“Also recorded” adds a separate entry of the source. Read-outs that look alike come from different tables or passages of the source. Where no end group is shown, it is not given here.

How the values were obtained:
[1] = T1-weighted MR imaging of phantoms at 1.5 tesla; settings: 1.5 T, HEPES buffer pH 7.4, ambient temperature
Experimental: FIG. 6. T1-weighted MR images at 1.5 tesla of phantoms in HEPES buffer, pH 7.4, ambient temperature. (A) 3D SPGR TR=40, TE=3.1, α=75°. Images: a) HEPES; b) 80 μM P3W; c) 80 μM DNA (14-mer duplex); d) 115 μM GdDTPA; e) 115 μM GdDTPA+DNA (1:1); f) 8.6 μM GdP3W+DNA (1:1); g) 86 μM GdP3W; h) 86 μM GdP3W+DNA (1:1); i) 86 μM GdP3W+DNA (1:1)+NaCl (150 μM). (B) 3D SPGR TR=40, TE=4.0, α=40°. Images: a) HEPES, b) 48 μM GdDTPA, c) 48 μM GdP3W; d) 48 μM GdP3W+DNA.
(§1) P3W peptide ([…], Gd-binding EF-hand site is shaded) was synthesized and purified (>95% by HPLC) by the Caltech Peptide Synthesis Facility, Pasadena, Calif. The gadolinium complex was prepared by dissolving P3W in 50 mM HEPES buffer, pH 7.4, and adding 0.8 equivalents Gd(NO3)3 to give a 500 μM stock solution. Peptide concentration was estimated by absorbance (ε280=7290 M^−1cm^−1); the absence of uncomplexed Gd^3+ was confirmed by colorometric analysis with xylenol orange. All Gd concentrations were determined by ICP-MS (Agilent 7500). Relaxation rates were determined at 20 and 60 MHz, 37° C. using Broker NMS 120 and Brtiker mg60 Minispec spectrometers, respectively. NMRD profiles were recorded on a Koenig-Brown field cycling relaxometer; phantoms were imaged on a GE 1.5T clinical imager.

[2] = Relaxivity (water proton relaxation) without DNA; format: physicochemical; settings: 37° C., 50 mM HEPES, pH 7.4
Experimental: as §1

[3] = tested on: 14-mer d.s. DNA: self-complementary 5′-GAGCTAATTAGCTC-3′; test: Relaxivity in the presence of one equivalent DNA; format: physicochemical; settings: 37° C., 50 mM HEPES, pH 7.4, one equivalent DNA
Experimental: as §1

[4] = tested on: supercoiled, double-stranded DNA; test: Cleavage of supercoiled plasmid monitored by agarose gel electrophoresis; format: biochemical
Experimental: The conversion of supercoiled plasmid (type I) to open circular (type II), linear (type III), or smaller fragments was monitored by agarose gel electrophoresis. Because the synthetic peptides bind strongly to DNA, thus preventing the observation of products, the peptides were chelated prior to electrophoresis (Falke et al., 1994). At the point each reaction was quenched (0.1 M EDTA), a suspension of neutral, washed, cation resin (Amberlyst, 10-20 μL) was incubated with each sample for 30 minutes, spun down, and the supernatent loaded into wells. After 24 hours of reaction (incubated at 37° C.), the concentration-dependent formation of open circular plasmid was observed. […] Over a 10-300 μM EuP3 gradient, nicking occurred from 10-150 μM, with the greatest amount of cleavage at 30 μM EuP3.
Sequence Selective DNA Cleavage. […] This cleavage is not dependent on the strain inherent in supercoiled plasmid, as cleavage of linearized ^32P-labeled DNA oligonucleotides was observed as well. Labeled fragments were incubated with Ce(NH3)6(NO3)4 and varying concentrations of peptides P3 or P3W at 37° C. overnight and analyzed by acrylamide gel electrophoresis. Cleavage was concentration dependent, and distinct between metallopeptides.

[5] = Hydrolysis of bis-nitrophenylphosphate (BNPP) followed spectrophotometrically; format: biochemical; settings: 37° C., BNPP 500 μM
Experimental: Hydrolytic Phosphate Cleavage. Because the EF-Hand is physiologically strictly a structural motif, an isolated Ca-binding loop's ability to affect hydrolytic cleavage was addressed. The hydrolysis of bis-nitrophenylphosphate (BNPP) was followed spectrophotometrically under turnover conditions. The absorbance increase at 400 nm due to liberated 4-nitrophenolate was observed over the initial 10-14 hours of the reaction (<10% BNPP converted). […] Plots of absorbance vs. time were converted to concentration units (ε=18,500 M^−1 cm^−1) to give first order rate constants (Sardesai et al., 1994).

[6] = tested on: supercoiled plasmid DNA (pBR322); test: DNA gel shift assay (agarose gel electrophoresis); format: binding; settings: 5-25 μM ligand, 15 minutes, pBR322, 10 mM Tris pH 8.0
Experimental: DNA Gel Shift Assays. The affinity of EuP3, EuP2, and each free peptide for supercoiled plasmid DNA was examined by agarose gel electrophoresis. Plasmid (pBR322, New England Biolabs, Inc.) was incubated for 15 minutes at room temperature with increasing concentrations of each ligand (5-25 μM), prior to the addition of loading dye. Each lane contained 1 μg plasmid (50 μM base pairs) in 10 mM Tris buffer at pH 8.0.

[7] = tested on: T1, P3 (engrailed HTH / consensus EF-hand chimeric peptide) (synthetic construct); test: EMSA; settings: Eu(III) complex EuP3; agarose gel shift, estimate from quantified band volumes; 10 mM Tris pH 8.0, room temp
T1 sequence: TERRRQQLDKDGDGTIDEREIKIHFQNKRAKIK

[8] = cited from earlier work
[9] = target: P4a (chimeric peptide: alpha2 and alpha3 of engrailed, minus the last turn of alpha2 and the beta-turn, with calmodulin loop I); test: measured dissociation constants for EuP4a; method not stated; self-association in the presence of Eu(III)
[10] = 10 μM Eu/10 μM peptide, pH 7.7, 10 mM Tris buffer
[11] = 25 μM Eu/25 μM peptide, pH 7.7, 10 mM Tris buffer
[12] = 25 μM Eu/50 μM peptide, pH 7.7, 10 mM Tris buffer

With `O=C([O-])CN(CCN(CC(=O)[O-])CC(=O)O)CCN(CC(=O)[O-])CC(=O)O.[Gd+3]` [GdDTPA] the “signal / contrast in T1-weighted image, with DNA (1:1)” value [1] was “did not increase the signal”, the “signal / contrast in T1-weighted image, without DNA” value [1] was “difficult to discern” and the r1 ([2]; 20 MHz) was 4.6 mM⁻¹ s⁻¹. For the same molecule, the r1 ([2]; 60 MHz) was 3.5 mM⁻¹ s⁻¹, the “r1 + DNA” value ([3]; 20 MHz) was 4.9 mM⁻¹ s⁻¹ and the “r1 + DNA” value ([3]; 60 MHz) was 3.5 mM⁻¹ s⁻¹.

With “EuP4a: Eu(III) metallopeptide of P4a (TERRRFDKDGNGYISAAELRHVKIWFQNKRAKIK)” the “dependence of cleavage activity on increasing concentration” value [4] was “does not”, the “Rates (K(obs)) of BNPP cleavage” value [5, 10] was 11.3 s^−1 × 10^7 and the “Rates (K(obs)) of BNPP cleavage” value [5, 11] was 56.3 s^−1 × 10^7. For the same molecule, the “Rates (K(obs)) of BNPP cleavage” value [5, 12] was 62.0 s^−1 × 10^7, the “Rates (K(obs)) of BNPP cleavage” value ([5]; 50 μM Eu/50 μM peptide, pH 7.7, 10 mM Tris buffer) was 149.5 s^−1 × 10^7 and the “Rates (K(obs)) of BNPP cleavage” value ([5]; 50 μM Eu/100 μM peptide, pH 7.7, 10 mM Tris buffer) was 212.0 s^−1 × 10^7.

In the case of “EuP3: Eu(III) metallopeptide of P3 (TERRRQQLDKDGDGTIDEREIKIHFQNKRAKIK)”, the “dependence of cleavage activity on increasing concentration” value [4] is reported as “falls off with increasing concentration”, the “concentration range in which nicking occurred” value ([4]; 10-300 μM EuP3 gradient) is reported as 10 to 150 µM and the “concentration with the greatest amount of cleavage” value ([4]; 10-300 μM EuP3 gradient) is reported as 30 µM. The “cleavage of supercoiled DNA (in words)” value ([4]; 37° C.) was “catalyzes the cleavage of supercoiled, double-stranded DNA”, the “gel shift / DNA affinity (in words)” value [6] was “gel shift and disappearance of type I plasmid occurs; also recorded: DNA-binding affinity in the micromolar regime” and the “Rates (K(obs)) of BNPP cleavage” value [5, 10] was 6.0 s^−1 × 10^7. The “Rates (K(obs)) of BNPP cleavage” value [5, 11] was 7.3 s^−1 × 10^7, the “Rates (K(obs)) of BNPP cleavage” value [5, 12] was 20.6 s^−1 × 10^7 and the “Rates (K(obs)) of BNPP cleavage” value ([5]; 50 μM Eu/50 μM peptide, pH 7.7, 5 mM Tris buffer) was 17.5 ± 4 s^−1 × 10^7. For the same molecule, the “Rates (K(obs)) of BNPP cleavage” value ([5]; 50 μM Eu/100 μM peptide, pH 7.7, 5 mM Tris buffer) was 11.5 ± 4 s^−1 × 10^7.

Work on pBR322 supercoiled plasmid yielded a Kd [7] of 20 µM.

With `[Cl][Eu]([Cl])[Cl]` [EuCl3, reference compound] the “gel shift / DNA affinity (in words)” value [6] was “not”, the “Rates (K(obs)) of BNPP cleavage” value ([5]; 10 μM Eu/0 peptide, pH 7.7, 5 mM Tris buffer) was 5.2 ± 0.6 s^−1 × 10^7 and the “Rates (K(obs)) of BNPP cleavage” value ([5]; 12 μM Eu/0 peptide, pH 7.7, 5 mM Tris buffer) was 5.7 ± 0.3 s^−1 × 10^7.

For Gd-TREN-1-Me=3,2-HOPO, the relaxivity ([8]; 20 MHz and 37° C.) is given as 6 to 11 mM⁻¹ s⁻¹.

In the case of `O=C([O-])CN(CCN(CC(=O)[O-])C[C@H](COP(=O)([O-])OC1CCC(c2ccccc2)(c2ccccc2)CC1)N(CC(=O)[O-])CC(=O)[O-])CC(=O)[O-].[Gd+3].[H+].[H+].[H+]` [MS-325], the relaxivity ([8]; 60 MHz) is given as 23 mM⁻¹ s⁻¹.

B1: P4a (chimeric peptide: alpha2 and alpha3 of engrailed, minus the last turn of alpha2 and the beta-turn, with calmodulin loop I) (peptide)
peptide: TERRRFDKDGNGYISAAELRHVKIWFQNKRAKIK
modifications: also: Eu(III) complex
In the case of B1, the Kdim (dimerization constant) [9] is reported as over 300 µM.
